Results taken from patent publication US11820720B2, “3-(5-substituted-4-oxoquinazolin-3(4H)-yl)-3-deuteropiperidine-2,6-dione derivatives and compositions comprising and methods of using the same” (DeuteRx, LLC, priority 2013, dated 2023).

What was measured:
[1] = Pharmacokinetics after single oral gavage dose in female CB.17 SCID mice; type: in vivo; details: for AUC, compound analyzed d+ / AUC, compound analyzed d− / AUC, compound analyzed h+ / AUC, compound analyzed h−: 15 mg/kg
Experimental: Female CB.17 SCID mice (8-12 weeks of age) were administered a single dose of protonated racemate (h-rac, 30 mg/kg), d− (15 mg/kg), or d+ (15 mg/kg) by oral gavage. Deuterated enantiomers (i.e., d− and d+) used in this study contain ˜10% of the corresponding protonated enantiomer. Blood was collected into potassium EDTA (K2EDTA) containers by terminal cardiac puncture under carbon dioxide anesthesia from N=3 per group per time point at 0.25, 0.5, 1, 2, 4, 8, and 24 h post-dose. Plasma was isolated, frozen, and stored until ready for analysis.
Samples were prepared for quantitative analysis by liquid-liquid extraction in methyl-t-butylether (MTBE) with ondansetron as internal standard (ISTD). MTBE was evaporated under nitrogen flow and samples were reconstituted in 1% acetic acid in water/acetonitrile (20/80). Analysis was performed by chiral LC/MS-MS on a Daicel ChiralPak IE-3 column using an isocratic LC method of 0.1% acetic acid in water and acetonitrile (20:80 v/v). ISTD-normalized peak areas for deuterated enantiomers d- and d+ were corrected from interference from naturally occurring isotopes of the protonated analytes. Concentrations were obtained by interpolation on standard curves prepared in mouse plasma using standard solutions of the analytes.
Data was plotted in Excel 2013 (Microsoft Corp, Redmond, WA) and analyzed within Excel using the PKSolver add-in (version 2.0, as described in Zhang Y. et al Comput. Methods Programs Biomed. 99 (2010), 306-314) to determine pharmacokinetic parameters including exposure (as area under the curve, AUC) and elimination half-life (t1/2).

[2] = system: Human Multiple Myeloma H929 Cell Line; assay: Efficacy in human multiple myeloma H929 xenograft in female CB.17 SCID mice; type: in vivo; details: daily oral gavage 23 days, FIG. 10; for potency/efficacy at limiting tumor growth, comparison between compounds: d− and d+ 1.5 or 15 mg/kg, h-rac 3 mg/kg
Experimental: Female CB.17 SCID mice (8-12 weeks of age, N=60) were administered 1×10^7 H929 tumor cells in 50% Matrigel subcutaneously in their flank (0.2 mL/mouse). Animals were returned to their cages and tumor growth was monitored. Tumor size was reported as tumor volume (Vol) calculated as Vol=½ (L*W^2), where L and W are the length and width of the tumor as measured by caliper (L>W). A pair match was performed when tumors reached an average size of 100-150 mm^3 and the animals were divided into 6 treatment groups of N=10 animals each.
Animals were treated daily by oral gavage (10 mL/kg) with vehicle, d− (1.5 or 15 mg/kg), d+ (1.5 or 15 mg/kg), or h-rac (racemic mixture of protonated enantiomers h− and h+; 3 mg/kg). The compound h-rac was administered at twice the dose of the deuterated enantiomers since it contains 50% (i.e., 1.5 mg/kg) of each enantiomer. Body weight measurements were taken daily for the first week then biweekly. Tumor sizes were measured by caliper biweekly. The study was terminated after 23 days of dosing, then all animals were euthanized.

[3] = In vitro stability in human plasma at 37° C. (enantiomerization, D/H exchange, degradation); type: in vitro ADME
Experimental: (§1) (+)- and (−)-3-(5-Amino-2-methyl-4-oxoquinazolin-3(4H)-yl)-piperidine-2,6-dione and rac-3-(5-amino-2-methyl-4-oxoquinazolin-3(4H)-yl)-(3-^2H)-piperidine-2,6-dione (87% deuterium content at the C3-position and no detectable deuterium at the C5-position, 50:50 racemic mixture of (+)- and (−)-deuterated enantiomers) were incubated in CD-1 mouse plasma (K3EDTA as anticoagulant) or human plasma (K3EDTA as anticoagulant) at 37° C. in duplicates. Aliquots were removed at t=0, 0.5, 1, 2, 6, 8, 24, 48, and 96 h.
(§2) Plasma proteins were precipitated by addition of acetonitrile containing internal standard (ISTD, tolbutamide) and the supernatants were analyzed semi-quantitatively by LC/MS-MS with elution on a chiral column (Daicel ChiralPak IE-3) for the separation of enantiomers (isocratic method of 20:80 v/v 0.1% acetic acid in water and acetonitrile). Peak areas for the deuterated enantiomers (+)- and (−)-3-(5-amino-2-methyl-4-oxoquinazolin-3(4H)-yl)-(3-^2H)-piperidine-2,6-dione were normalized to the ISTD and corrected for the isotopic peak of the corresponding protonated enantiomer, (+)- and (−)-3-(5-amino-2-methyl-4-oxoquinazolin-3(4H)-yl)-piperidine-2,6-dione respectively, if present. Corrected data were analyzed and plotted using Microsoft Excel 2013 (Microsoft Corp, Redmond, WA) and the Excel Solver.
(§3) Scheme 1 below illustrates the possible reactions in a solution of deuterated racemate. The deuterium in both enantiomers, d+ and d−, can be lost by D/H exchange to give both protonated enantiomers, h+ and h− with rate constants kD++, kD+−, kD−+, kD−−. At the same time, the protonated enantiomers h+ and h−, can exchange, with enantiomerization rate constants k+− and k−+. All four compounds can also degrade with potentially different degradation rate constants kh+d, kh−d, kd+d, kd−d.
(§4) Human and mouse plasma data were analyzed independently. Independent analyses of the data for h+ and h− were performed first and the average rate constants k+− and k−+ from these two fits were calculated and used as constants in the fitting of the stability data of the deuterated racemate. Calculated concentrations were obtained through numerical approximation of differential equations (1) and (2) for the stability studies of h+ and h− and equations (3) to (6) for the stability study of deuterated racemate (50:50 d+:d−) by the Euler method (equation (7)). The step between calculated time points was minimized in order to minimize the local error (proportional to the square of the step size) and the global error (proportional to the step size).
(§5) The average degradation rate constant obtained by fitting the data for h+ and h− was used in the fit of the stability data of the deuterated racemate. Data analysis was performed in Microsoft Excel 2013, using the Solver Generalized Reduced Gradient Nonlinear method with central derivatives to minimize the sum of sums of weighted Δ^2, square of difference between ISTD-normalized experimental data and calculated value, divided by the experimental data.
(§6) [formula] where [h+], [h−], [d+], [d−] are the concentrations of both protonated and deuterated enantiomers, k+− and k−+ are the rate constants for the enantiomerization reactions [h+] to [h−] and [h−] to [h+] respectively, kD++, kD+−, kD−+, and kD−− are the rate constants for the D/H exchange reactions [d+] or [d−] to [h+] or [h−], and kd is the rate constant for the degradation of all four compounds
(§7) [formula] where [X]ti is the concentration of either enantiomer at time ti, t1 is a time at which [X] is known, t2 is a time at which [X] is calculated, and [d[X]]t1 is the calculated value of the differential equation at time t1.

[4] = In vitro stability in CD-1 mouse plasma at 37° C. (enantiomerization, D/H exchange, degradation); type: in vitro ADME
Experimental: as §1, §2, §3, §4, §5, §6, §7

[5] = mouse plasma, single oral gavage 15 mg/kg
[6] = human plasma, 37° C., fit to equations 1 to 6
[7] = human plasma, 37° C., average of values for h− and h+
[8] = mouse plasma, 37° C., fit to equations 1 to 6
[9] = mouse plasma, 37° C., average of values for h− and h+

Molecule: [2H]C1(n2c(C)nc3cccc(N)c3c2=O)CCC(=O)NC1=O (single isomer, unassigned; (-)) [d−, (−)-3-(5-Amino-2-methyl-4-oxoquinazolin-3(4H)-yl)-(3-^2H)-piperidine-2,6-dione]
- t1/2, compound analyzed d− [1, 5]: 1.2 h
- t1/2, compound analyzed h− [1, 5]: 1.2 h
- AUC, compound analyzed d+ [1, 5]: 898 ng·h/mL
- AUC, compound analyzed d− [1, 5]: 44100 ng·h/mL
- AUC, compound analyzed h+ [1, 5]: 1180 ng·h/mL
- AUC, compound analyzed h− [1, 5]: 6160 ng·h/mL
- potency/efficacy at limiting tumor growth, comparison between compounds [2]: more potent at limiting tumor growth at both doses than h-rac

Molecule: Cc1nc2cccc(N)c2c(=O)n1C1CCC(=O)NC1=O (single isomer, unassigned; (+)) [h+, (+)-3-(5-amino-2-methyl-4-oxoquinazolin-3(4H)-yl)-piperidine-2,6-dione, reference compound]
- k +− (enantiomerization rate constant h+ to h−) ([3]; human): 0.297 h⁻¹
- k d (degradation rate constant) ([3]; human): 2.68e-05 s⁻¹
- k −+ (enantiomerization rate constant h− to h+) ([3]; human): 0.220 h⁻¹
- Calculated half-life t1/2, degradation d ([3]; human, plasma): 7.2 h
- Calculated half-life t1/2, enantiomerization +− ([3]; human, plasma): 2.3 h
- half-life ([3]; human, plasma, Calculated half-life t1/2, enantiomerization −+): 3.2 h
- k +− (enantiomerization rate constant h+ to h−) ([4]; CD-1, mouse): 0.0603 h⁻¹
- k d (degradation rate constant) ([4]; CD-1, mouse): 1.45e-05 s⁻¹
- k −+ (enantiomerization rate constant h− to h+) ([4]; CD-1, mouse): 0.119 h⁻¹
- Calculated half-life t1/2, degradation d ([4]; CD-1, mouse, plasma): 13.3 h
- Calculated half-life t1/2, enantiomerization +− ([4]; CD-1, mouse, plasma): 11.5 h
- Calculated half-life t1/2, enantiomerization −+ ([4]; CD-1, mouse, plasma): 5.8 h

Molecule: [2H]C1(n2c(C)nc3cccc(N)c3c2=O)CCC(=O)NC1=O (single isomer, unassigned; (+)) [d+, (+)-3-(5-Amino-2-methyl-4-oxoquinazolin-3(4H)-yl)-(3-^2H)-piperidine-2,6-dione]
- t1/2, compound analyzed d+ [1, 5]: 1.1 h
- t1/2, compound analyzed h+ [1, 5]: 1.0 h
- AUC, compound analyzed d+ [1, 5]: 63600 ng·h/mL
- AUC, compound analyzed d− [1, 5]: 661 ng·h/mL
- AUC, compound analyzed h+ [1, 5]: 6120 ng·h/mL
- AUC, compound analyzed h− [1, 5]: 993 ng·h/mL
- efficacy (tumor volume) by dose ([2]; 1.5 or 15 mg/kg): observed only at the highest dose
- potency/efficacy at limiting tumor growth, comparison between compounds [2]: less efficacious than d−

Molecule: 3-(5-amino-2-methyl-4-oxoquinazolin-3(4H)-yl)-(3-^2H)-piperidine-2,6-dione [d-rac]
- Calculated half-life t1/2, D/H exchange of d+ (D++ and D+−) ([3]; human plasma, 37° C.): 8.3 h
- Calculated half-life t1/2, D/H exchange of d− (D−+ and D−−) ([3]; human plasma, 37° C.): 5.2 h
- Calculated half-life t1/2, degradation d ([3]; human plasma, 37° C.): 7.8 h
- Calculated half-life t1/2, enantiomerization +− ([3]; human plasma, 37° C.): 2.6 h
- Calculated half-life t1/2, enantiomerization −+ ([3]; human plasma, 37° C.): 3.6 h
- k D++ (rate constant D/H exchange d+ to h+) [3, 6]: 2.33e-05 s⁻¹
- k D+− (rate constant D/H exchange d+ to h−) [3, 6]: 0 s⁻¹
- k D−+ (rate constant D/H exchange d− to h+) [3, 6]: 0 s⁻¹
- k D−− (rate constant D/H exchange d− to h−) [3, 6]: 3.72e-05 s⁻¹
- k +− (enantiomerization rate constant used in analysis of d-rac) [3, 7]: 0.264 h⁻¹
- k d (degradation rate constant for the enantiomers of d-rac) [3, 7]: 2.51e-05 s⁻¹
- k −+ (enantiomerization rate constant used in analysis of d-rac) [3, 7]: 0.195 h⁻¹
- Calculated half-life t1/2, D/H exchange of d+ (D++ and D+−) ([4]; mouse plasma, 37° C.): 14.5 h
- Calculated half-life t1/2, D/H exchange of d− (D−+ and D−−) ([4]; mouse plasma, 37° C.): 12.7 h
- Calculated half-life t1/2, degradation d ([4]; mouse plasma, 37° C.): 13.0 h
- Calculated half-life t1/2, enantiomerization +− ([4]; mouse plasma, 37° C.): 10.5 h
- Calculated half-life t1/2, enantiomerization −+ ([4]; mouse plasma, 37° C.): 7.2 h
- k D++ (rate constant D/H exchange d+ to h+) [4, 8]: 1.29e-05 s⁻¹
- k D+− (rate constant D/H exchange d+ to h−) [4, 8]: 3.03e-07 s⁻¹
- k D−+ (rate constant D/H exchange d− to h+) [4, 8]: 4.61e-06 s⁻¹
- k D−− (rate constant D/H exchange d− to h−) [4, 8]: 1.06e-05 s⁻¹
- k +− (enantiomerization rate constant used in analysis of d-rac) [4, 9]: 0.0662 h⁻¹
- k d (degradation rate constant for the enantiomers of d-rac) [4, 9]: 1.48e-05 s⁻¹
- k −+ (enantiomerization rate constant used in analysis of d-rac) [4, 9]: 0.0959 h⁻¹

Molecule: Cc1nc2cccc(N)c2c(=O)n1C1CCC(=O)NC1=O (single isomer, unassigned; (-)) [h−, (−)-3-(5-amino-2-methyl-4-oxoquinazolin-3(4H)-yl)-piperidine-2,6-dione, reference compound]
- k +− (enantiomerization rate constant h+ to h−) ([3]; human): 0.231 h⁻¹
- k d (degradation rate constant) ([3]; human): 2.35e-05 s⁻¹
- k −+ (enantiomerization rate constant h− to h+) ([3]; human): 0.169 h⁻¹
- half-life ([3]; human, plasma, Calculated half-life t1/2, degradation d): 8.2 h
- half-life ([3]; human, plasma, Calculated half-life t1/2, enantiomerization +−): 3 h
- k +− (enantiomerization rate constant h+ to h−) ([4]; CD-1, mouse): 0.0722 h⁻¹
- k d (degradation rate constant) ([4]; CD-1, mouse): 1.51e-05 s⁻¹
- k −+ (enantiomerization rate constant h− to h+) ([4]; CD-1, mouse): 0.0730 h⁻¹
- half-life ([4]; CD-1, mouse, plasma, Calculated half-life t1/2, degradation d): 12.7 h
- half-life ([4]; CD-1, mouse, plasma, Calculated half-life t1/2, enantiomerization +−): 9.6 h
- half-life ([4]; CD-1, mouse, plasma, Calculated half-life t1/2, enantiomerization −+): 9.5 h
- share of the total exposure ([1]; mice, exposure to the enantiomers of the protonated molecule (h-rac dosed)): 39%
